Data taken from ChEMBL document CHEMBL1255230, “Chemical inhibitor of nonapoptotic cell death with therapeutic potential for ischemic brain injury” (Nat Chem Biol, 2005).
The source made the active and inactive calls.

Key:
[1] = Inhibition of death receptor signaling mediated necroptotic cell death in mouse 3T3 cells assessed as decreased levels of PE-conjugated autophagy marker LC3-II after 24 hrs by Western blot method in presence of TNFalpha and zVAD-fmk; type: cell-based; conditions: NIH3T3
[2] = system: Jurkat; test: Inhibition of necrosis in human Jurkat cells deficient in FADD assessed as inhibition of early loss of plasma membrane integrity by bright field microscopy in presence of TNFalpha; type: functional, cell-based
[3] = system: Jurkat; test: Effect on cell cycle in human Jurkat cells deficient in FADD assessed as cells in S phase relative to control; type: functional
[4] = system: Mus musculus; test: Inhibition of necroptosis in icv dosed mouse middle cerebral artery occlusion induced ischemic injury model assessed as reduction of infarct volume; type: functional, organism-based
[5] = Inhibition of death receptor signaling mediated necroptotic cell death in human U937 cell assessed as cell viability after 72 hrs by ATP based viability assay in presence of TNFalpha and zVAD.fmk; conditions: U-937
[6] = system: Jurkat; test: Effect on apoptosis in human Jurkat cell assessed as plasma membrane blebbing by electron microscopy in presence of FasL and CHX; type: functional, cell-based
[7] = system: NIH3T3; test: Inhibition of apoptosis in mouse 3T3 cells assessed as cell viability after 24 hrs by ATP based viability assay in presence of TNFalpha and CHX; type: functional
[8] = Inhibition of death receptor signaling mediated necroptotic cell death in mouse 3T3 cells assessed as cell viability after 24 hrs by ATP based viability assay in presence of TNFalpha and zVAD-fmk; conditions: NIH3T3
[9] = Inhibition of death receptor signaling mediated necroptotic cell death in human Jurkat cell deficient in FADD assessed as cell viability after 30 hrs by ATP based viability assay in presence of TNFalpha
[10] = system: Jurkat; test: Effect on gene expression in human Jurkat cells after 16 hrs by Agilent DNA chip analysis; type: functional, cell-based
[11] = system: NIH3T3; test: Effect on morphology of golgi apparatus in mouse 3T3 cells after 24 hrs by anti-giantin immunofluorescence in presence of TNFalpha and zVAD-fmk; type: functional, cell-based
[12] = system: NIH3T3; test: Effect on microtubule cytoskeleton in mouse 3T3 cells after 24 hrs by anti-tubulin immunofluorescence method in presence of TNFalpha and zVAD-fmk; type: functional, cell-based
[13] = Inhibition of death receptor signaling mediated necroptotic cell death in human Jurkat cell deficient in FADD assessed as inhibition of plasma membrane permeability after 24 hrs by in presence of TNFalpha; type: cell-based
[14] = Inhibition of death receptor signaling mediated necrotic cell death in mouse L929 cells assessed as cell viability after 24 hrs by ATP based viability assay in presence of TNFalpha
[15] = system: NIH3T3; test: Effect on morphology of nucleus in mouse 3T3 cells after 24 hrs by TO-PRO-3 staining in presence of TNFalpha and zVAD-fmk; type: functional, cell-based
[16] = system: NIH3T3; test: Effect on actin cytoskeleton in mouse 3T3 cells after 24 hrs by phalloidin-TRITC staining in presence of TNFalpha and zVAD-fmk; type: functional, cell-based
[17] = system: Jurkat; test: Inhibition of necrosis in human Jurkat cells assessed as early loss of plasma membrane integrity by bright field microscopy in presence of FasL, CHX and zVAD-fmk; type: functional, cell-based
[18] = Inhibition of death receptor signaling mediated necroptotic cell death in human Jurkat cell deficient in FADD assessed as inhibition of mitochondrial dysfunction after 24 hrs by in presence of TNFalpha; type: cell-based
[19] = system: Jurkat; test: Effect on cell cycle in human Jurkat cells deficient in FADD assessed as cells in G2/M phase relative to control; type: functional
[20] = Inhibition of death receptor signaling mediated necroptotic cell death in human Jurkat cells deficient in FADD and expressing RIP kinase assessed as cell viability after 48 hrs by FACS in presence of AP1510; type: cell-based
[21] = Inhibition of death receptor signaling mediated necroptotic cell death in human Jurkat cells deficient in FADD and expressing RIP kinase assessed as cell viability after 48 hrs by FACS in presence of AP1510, zVAD-fmk; type: cell-based
[22] = system: U-937; test: Inhibition of oxidative stress induced necrosis in human U937 cells after 24 hrs in presence of menadione; type: functional, cell-based
[23] = system: Jurkat; test: Antiproliferative activity against human Jurkat cells; type: functional, cell-based
[24] = system: Jurkat; test: Effect on changes in cell size in human Jurkat cells; type: functional, cell-based
[25] = system: Jurkat; test: Inhibition of necrosis in human Jurkat cells deficient in FADD assessed as inhibition of appearance of translucent cytosol in presence of TNFalpha; type: functional, cell-based
[26] = Inhibition of death receptor signaling mediated necroptotic cell death in human Jurkat cells deficient in FADD assessed as decreased levels of PE-conjugated LC3-II (autophagy marker) after 24 hrs by Western blot method in presence of TNFalpha; type: cell-based
[27] = system: Jurkat; test: Inhibition of necrosis in human Jurkat cells assessed as nuclear condensation by bright field microscopy in presence of FasL, CHX and zVAD-fmk; type: functional, cell-based
[28] = system: Jurkat; test: Effect on ATP level in human Jurkat cells; type: functional, cell-based
[29] = system: Jurkat; test: Effect on cell cycle in human Jurkat cells deficient in FADD assessed as cells in sub-G1 phase relative to control; type: functional
[30] = Inhibition of death receptor signaling mediated necroptotic cell death in human Jurkat cells deficient in FADD and expressing RIP K45M mutant assessed as cell viability after 48 hrs by FACS in presence of AP1510; type: cell-based
[31] = system: Jurkat; test: Effect on apoptosis in human Jurkat cell assessed as nuclear fragmentation by electron microscopy in presence of FasL and CHX; type: functional, cell-based
[32] = Inhibition of death receptor signaling mediated necroptotic cell death in mouse L929 cells assessed as decreased levels of PE-conjugated autophagy marker LC3-II after 24 hrs by Western blot method in presence of TNFalpha; type: cell-based
[33] = Inhibition of death receptor signaling mediated necroptotic cell death in human Jurkat cell deficient in FADD assessed as changes in cell size after 24 hrs by forward and side scatter FACS analysis in presence of TNFalpha; type: cell-based

CN1C(=O)C(Cc2c[nH]c3ccccc23)NC1=S (centres undefined) [NECROSTATIN]
45.1%: Activity [3]
0.7%: Activity [29]
13.5%: Activity [19]
active: inhibition [1] | inhibition [2] | inhibition [4] | inhibition [5] Dose-dependent effect | inhibition [8] | inhibition [9] | inhibition [13] | inhibition [14] | inhibition [17] | inhibition [18] | inhibition [20] | inhibition [21] | inhibition [25] | inhibition [26] | inhibition [27] | inhibition [30] | inhibition [32] | inhibition [33]
494 nM: IC50 [9]
inactive: Activity [6] | inhibition [7] | Activity [10] | Activity [11] | Activity [12] | Activity [15] | Activity [16] | inhibition [22] | Activity [23] | Activity [24] | Activity [28] | Activity [31]
